One block for each compound: values may come before it.
Tests used:
[1] = tested on: choroidal neovascular (CNV) lesions; experiment: Localization and persistence in CNV lesions after systemic administration, laser-induced CNV mouse model; format: in vivo, C57BL/6 mice
Method: Two studies were conducted in C57BL/6 mice (n=5/group) administered intravenously 100 μL of D-ICG or vehicle control. In the first study, mice were administered D-ICG or vehicle control at 1, 3, 7, or 14 days post-laser and eyes were analyzed by optical coherence tomography (OCT) with ICG imaging at 4 or 24 hr post-dose. Flat-mounts of the sclera-choroid/retinal pigment epithelial (RPE) complexes were stained by fluorescently tagged isolectin and IBA-1.
The second study evaluated the localization and persistence of dendrimer conjugates in the CNV lesion. In the second study, mice were administered intravenously 100 μL of D-ICG and 100 μL of D-TRITC (1 hr after D-ICG) or vehicle control at 24 hr post-laser. Mice analyzed and sacrificed at 4, 7, 14, 21, and 28 days post-dose (n=5/group). For control group, free ICG (1.23 mg/mL), 100 μL, IV dosed 24 hr post-laser and mice analyzed and sacrificed at 2, 4, 7, and 14 days post-dose (n=5/group). Eyes analyzed by optical coherence tomography (OCT) with ICG imaging. Flat-mounts of the sclera-choroid/retinal pigment epithelial (RPE) complexes were stained by fluorescently tagged IBA-1 alone.

[2] = rat, in vivo, 40.21 mg/kg
TIE II = TIE II (Homo sapiens (Human), UniProt Q02763); experiment: TIE II inhibition, dissociation constant; format: binding
[3] = tested on: choroidal neovascularization (CNV); experiment: Laser-induced CNV mouse model, single IP dose, duration of efficacy; format: in vivo, C57BL/6 mice; details: single IP dose (aflibercept IVT)
[4] = tested on: choroidal neovascularization (CNV); experiment: Laser-induced CNV mouse model, single IV dose; details: single dose 24 hr after laser (IV; aflibercept IVT 40 μg); CNV area 7 days after laser
Method: As a positive control group, a cohort of mice were administered aflibercept (EYLEA®) intravitreally (IVT; 1 μL, 40 μg). The CNV area was measured 7 days after laser treatment by both fluorescein angiography and flat-mounts of the sclera-choroid/RPE complexes stained with isolectin IB4.

VEGFR2 = VEGFR2 (Homo sapiens (Human), UniProt P35968); experiment: In vitro kinase binding assay (VEGFR2)
Method: All reactions performed in polypropylene 384-well plate. Each was a final volume of 0.02 ml.

Toxicokinetics in rats = format: in vivo, Sprague-Dawley rats; details: D-4517 12 mg/kg daily IP, sunitinib 30 mg/kg daily oral
Method: Toxicokinetic data was collected in rats. […] Blood samples were collected, and plasma drug concentrations were determined. Noncompartmental toxicokinetic parameters were estimated.

Sequence of VEGFR2 (P35968 20-1356): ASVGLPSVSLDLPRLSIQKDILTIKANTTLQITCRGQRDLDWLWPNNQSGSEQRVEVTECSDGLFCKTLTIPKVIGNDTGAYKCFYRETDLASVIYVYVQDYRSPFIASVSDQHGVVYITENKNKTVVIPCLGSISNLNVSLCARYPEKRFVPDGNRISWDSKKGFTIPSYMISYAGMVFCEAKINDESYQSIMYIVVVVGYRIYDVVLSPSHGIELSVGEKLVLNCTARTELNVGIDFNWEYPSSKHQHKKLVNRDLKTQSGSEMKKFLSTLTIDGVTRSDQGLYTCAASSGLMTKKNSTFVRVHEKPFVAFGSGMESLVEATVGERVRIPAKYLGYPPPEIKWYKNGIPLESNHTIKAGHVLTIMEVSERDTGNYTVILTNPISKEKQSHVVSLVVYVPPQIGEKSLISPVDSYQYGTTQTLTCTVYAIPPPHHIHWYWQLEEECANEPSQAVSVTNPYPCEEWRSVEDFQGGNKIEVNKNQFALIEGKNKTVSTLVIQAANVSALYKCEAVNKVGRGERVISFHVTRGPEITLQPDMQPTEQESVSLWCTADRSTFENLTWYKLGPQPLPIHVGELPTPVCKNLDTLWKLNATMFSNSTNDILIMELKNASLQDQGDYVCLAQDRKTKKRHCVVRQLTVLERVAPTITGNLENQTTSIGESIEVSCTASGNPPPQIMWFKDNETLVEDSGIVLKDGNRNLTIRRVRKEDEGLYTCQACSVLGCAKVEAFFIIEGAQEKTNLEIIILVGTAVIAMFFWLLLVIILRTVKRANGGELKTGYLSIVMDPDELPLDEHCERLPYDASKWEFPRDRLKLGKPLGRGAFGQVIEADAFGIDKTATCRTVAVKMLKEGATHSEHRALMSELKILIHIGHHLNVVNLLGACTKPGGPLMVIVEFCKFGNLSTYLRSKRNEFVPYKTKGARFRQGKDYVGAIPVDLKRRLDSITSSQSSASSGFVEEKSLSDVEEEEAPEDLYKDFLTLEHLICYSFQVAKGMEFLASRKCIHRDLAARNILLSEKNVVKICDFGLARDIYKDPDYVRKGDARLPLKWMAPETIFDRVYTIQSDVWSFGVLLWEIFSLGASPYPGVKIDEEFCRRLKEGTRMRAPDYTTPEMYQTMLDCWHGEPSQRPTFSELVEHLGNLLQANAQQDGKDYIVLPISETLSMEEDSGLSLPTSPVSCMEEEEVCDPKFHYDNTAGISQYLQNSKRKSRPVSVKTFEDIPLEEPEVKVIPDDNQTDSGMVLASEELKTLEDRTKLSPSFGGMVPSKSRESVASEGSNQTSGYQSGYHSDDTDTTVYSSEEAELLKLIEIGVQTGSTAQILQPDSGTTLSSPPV
Sequence of TIE II (Q02763 23-1124): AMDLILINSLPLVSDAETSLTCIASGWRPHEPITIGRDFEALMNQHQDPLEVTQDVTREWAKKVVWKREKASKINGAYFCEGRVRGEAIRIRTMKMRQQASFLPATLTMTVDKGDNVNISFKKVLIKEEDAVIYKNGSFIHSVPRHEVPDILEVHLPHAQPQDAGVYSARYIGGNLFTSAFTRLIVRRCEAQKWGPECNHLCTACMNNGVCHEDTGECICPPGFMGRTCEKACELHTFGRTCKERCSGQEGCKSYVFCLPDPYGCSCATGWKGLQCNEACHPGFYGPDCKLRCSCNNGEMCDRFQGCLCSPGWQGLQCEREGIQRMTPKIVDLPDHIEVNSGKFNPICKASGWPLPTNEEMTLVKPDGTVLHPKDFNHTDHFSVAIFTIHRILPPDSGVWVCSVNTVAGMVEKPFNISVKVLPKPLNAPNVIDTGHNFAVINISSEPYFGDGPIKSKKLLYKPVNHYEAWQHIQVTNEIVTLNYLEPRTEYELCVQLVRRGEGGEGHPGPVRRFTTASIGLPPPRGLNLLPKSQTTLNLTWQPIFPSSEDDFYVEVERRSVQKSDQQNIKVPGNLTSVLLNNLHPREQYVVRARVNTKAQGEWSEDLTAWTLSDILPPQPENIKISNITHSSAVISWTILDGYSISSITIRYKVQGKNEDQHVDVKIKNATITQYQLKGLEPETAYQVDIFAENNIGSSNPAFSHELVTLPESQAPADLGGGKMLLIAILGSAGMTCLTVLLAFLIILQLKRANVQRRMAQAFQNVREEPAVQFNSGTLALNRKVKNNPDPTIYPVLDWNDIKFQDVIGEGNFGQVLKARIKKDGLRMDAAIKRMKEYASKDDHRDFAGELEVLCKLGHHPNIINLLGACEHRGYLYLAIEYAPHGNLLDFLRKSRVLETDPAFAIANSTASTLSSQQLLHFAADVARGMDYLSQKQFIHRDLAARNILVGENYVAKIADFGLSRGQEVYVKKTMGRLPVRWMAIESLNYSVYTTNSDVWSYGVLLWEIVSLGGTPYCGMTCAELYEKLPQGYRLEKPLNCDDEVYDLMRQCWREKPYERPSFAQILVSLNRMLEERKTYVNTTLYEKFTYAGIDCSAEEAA

- time at which no longer present in the lesions ([1]; free ICG control groups, IV 24 hr post-laser): 7-14 days post-laser
- uptake/distribution in CNV lesions ([1]; systemic administration, within 24 hr after dosing): distributes non-specifically
Compound: CC1(C)C(/C=C/C=C/C=C/C=C2\N(CCCCS(=O)(=O)[O-])c3ccc4ccccc4c3C2(C)C)=[N+](CCCCS(=O)(=O)[O-])c2ccc3ccccc3c21.[Na+] [free ICG, indocyanine green]

Compound: CCN(CC)CCNC(=O)c1c(C)[nH]c(/C=C2\C(=O)Nc3ccc(F)cc32)c1C [Sunitinib Malate, reference compound]
- overall tolerability [2]: various clinical and pathological changes in addition to mortality in female rats

- Kd (TIE II): ~8.8 nM
Compound: COC(=O)Nc1nc2ccc(Oc3ccc(NC(=O)Nc4cc(C(F)(F)F)ccc4OCCCCN=[N+]=[N-])cc3)cc2[nH]1 [Structure V]

Compound: aflibercept
- CNV area ([3]; day 7 post-treatment): Significant reduction in the CNV area
- CNV area ([3]; day 14 post-treatment): not sustained
- reduction in CNV area compared with vehicle control [4]: Statistically significant reductions in the CNV area

- Kd (VEGFR2): 1 nM
Compound: Cc1[nH]c(/C=C2\C(=O)Nc3ccc(F)cc32)c(C)c1C(=O)NCCNC(=O)CCOCCOCCOCCN=[N+]=[N-]

Compound: CCN(CC)CCNC(=O)c1c(C)[nH]c(/C=C2\C(=O)Nc3ccc(F)cc32)c1C [free sunitinib, sunitinib]
- AUC estimates, sunitinib compared to D-4517 (Toxicokinetics in rats): higher

From patent publication US20240058459A1 (Ashvattha Therapeutics, Inc., priority 2019, published 2024)
